Where two headings read alike, the source gives them in different places.
Columns and labels:
Assay type in all cases: cell-based, human
[1] = tested on: NCI-H358 cells with Kras G12C mutation; experiment: Cell proliferation inhibition experiment, 3D spheroid, CellTiter-Glo (Test Example 1); settings: 5 days
Experimental: (§1) NCI-H358 was a human NSCLC cell line with Kras G12C mutation, which was cultured in a RPMI-1640 medium with 10% fetal bovine serum (FBS). A549 was a human lung adenocarcinoma cell line with Kras G12S mutation, which was cultured in an F-12K medium with 10% FBS. Cells in logarithmic growth phase were detached with trypsin and EDTA, collected and counted, and H358 was regulated to 1.8E4 cells/ml by using an RPMI-1640 medium with 2% FBS, while A549 was regulated to 8.9E3 cells/ml with an F-12K medium containing 2% FBS. 800 (45 μl) H358 cells and 400 (45 μl) A549 cells were seeded to 384-well spheroid plates, respectively, and cultured overnight to establish 3D cell models. 1000× stock solutions of compounds at a concentration gradient of 3.16 were prepared by using DMSO, and diluted 100 times by the medium with 2% FBS into 10× stock solutions of compounds. On the day after cell seeding, 5 μl of 10× stock solution of a compound was added to each well of cell culture plate, with a final concentration being 1× and a DMSO content of 0.1%. DMSO was used as the control, and the medium with 2% FBS was used as blank control group. After 5 days of cell culture with the compound, 25 μl of CellTiter-Glo working solution was added to each well, and mixed uniformly at 400 rpm and incubation for 30 minutes. After standing at room temperature for 30 minutes, 40 μl of mixed solution was transferred to a 384-well plate with white clear bottom. A value of luminescence was then read, and a cell proliferation inhibition rate (IR) (%)=(RLU control-RLU compound)/(RLU control−RLU blank)×100%. The value of IC50 was calculated by fitting a gradiently diluted concentration of the compound and the corresponding cell proliferation inhibition rate using a Prism 6 four-parameter method.

[2] = tested on: A549 cells with Kras G12S mutation; experiment: as above; settings: 5 days
Experimental: as §1

[3] = tested on: MIA PaCa-2 cells with Kras G12C mutation; experiment: Cell proliferation inhibition experiment, 3D spheroid, CellTiter-Glo (Test Example 3); settings: Homo sapiens, MIA PaCa-2, 120 h, 5 days, read-out: MIA-PaCa2 IC50
Experimental: MIA PaCa-2 was a human pancreatic carcinoma cell line with Kras G12C mutation, which was cultured in a DMEM with 10% FBS and 2.5% Horse serum. A549 was a human lung adenocarcinoma cell line with Kras G12S mutation, which was cultured in an F-12K medium with 10% FBS. Cells in logarithmic growth phase were detached with trypsin and EDTA, collected and counted, and 200 MIA PaCa-2 cells and 400 A549 cells were seeded to 384-well spheroid plates, respectively, and cultured overnight to establish 3D cell models. 1000× stock solutions of compounds at a concentration gradient of 3.16 were prepared by using DMSO, and diluted 100 times by the medium into 10× stock solutions of compounds. On the day after cell seeding, 10× stock solution of a compound was added to each well of cell culture plate, with a final concentration being 1× and a DMSO content of 0.1%. DMSO was used as the control, and the medium was used as the blank. After 5 days of cell culture with the compound, 30 μl of CellTiter-Glo working solution was added to each well, and mixed uniformly and incubation for 30 minutes. After standing at room temperature for 30 minutes, 40 μl of mixed solution was transferred to a 384-well plate with white unclear bottom. A value of luminescence intensity was then read, and a cell proliferation inhibition rate (IR) (%)=(RLU control−RLU compound)/(RLU control−RLU blank)×100%. The value of IC50 was calculated by fitting a gradiently diluted concentration of the compound and the corresponding cell proliferation inhibition rate using an XLFit four-parameter method.

[4] = tested on: phosphorylated ERK in MIA PaCa2 cells with Kras G12C mutation; experiment: p-ERK HTRF assay for cells (Test Example 2); settings: MIA PaCa2 cells, 2 hours with compound, read-out: p-ERK IC50
Experimental: MIA PaCa2 was a human pancreatic carcinoma cell line with Kras G12C mutation, which was cultured in a DMEM with 10% FBS and 2.5% Horse serum. Cells in logarithmic growth phase were detached with trypsin and EDTA, collected and counted, and 2.5E4 cells were seeded to a 96-well cell culture plate and cultured overnight. 1000× stock solutions of compounds at a concentration gradient of 3.16 were prepared by using DMSO, and diluted 200 times by the medium into 5× stock solutions of compounds. On the day after cell seeding, 5× stock solution of a compound was added to each well of cell culture plate, with a final concentration being 1× and a DMSO content of 0.1%. DMSO was used as the control. The residual culture was removed after culturing for 2 hours with the compound. To each well, 50 ul of cell lysis buffer was added and mixed uniformly and incubation for 30 minutes. Subsequently, 16 ul of mixed solution was transferred to a 96-well plate with white unclear bottom, and 16 ul of cell lysis buffer was added to the blank control group. After the completion of transfer, 4 ul of p-ERK HTRF antibody mixture was added to each well, and a value of fluorescence intensity was read after incubation for 4 hours. The inhibition rate (IR) of the compound was calculated by the following equation: IR (%)=(RLU control-RLU compound)/(RLU control−RLU blank)×100%. The value of IC50 was calculated by fitting a gradiently diluted concentration of the compound and the corresponding cell proliferation inhibition rate using a Prism 8 four-parameter method.

SMILES | IC50 ([1]; Homo sapiens, NCI-H358, 120 h) | IC50 ([2]; Homo sapiens, A549, 120 h) | IC50 [1] | IC50 [2] | also measured
C=CC(=O)N1CCN2c3c(c(=O)n(-c4c(C)ccnc4C(C)C)c4nc(-c5c(O)cccc5F)c(F)cc34)OC[C@H]2C1 (single isomer, unassigned) [Compound Z1-2] | – | 16500 nM | 198 nM | – | –
C=CC(=O)N1CCN2c3c(cnc4c3CCN(c3c(C)ccc5[nH]ncc35)C4)OC[C@H]2C1 [Compound Z2, (R)-1-(3-(5-methyl-1H-indazol-4-yl)-1,2,3,4,8a,9,11,12-octahydropyrazino[1′,2′:4,5][1,4]oxazino[2,3-c][1,7]naphthyridin-10(8H)-yl)propyl-2-en-1-one] | – | – | 773 nM | > 10000 nM | –
C=CC(=O)N1CCN2c3c(c(=O)n(-c4c(C)ccnc4C(C)C)c4nc(-c5c(O)cccc5F)c(F)cc34)N(CC)C(=O)[C@H]2C1 (single isomer, unassigned) [Compound Z30-1] | – | – | 804 nM | > 30000 nM | –
C=CC(=O)N1C[C@@H]2C(=O)Nc3c(c4cc(F)c(-c5c(O)cccc5F)nc4n(-c4c(C)ccnc4C(C)C)c3=O)N2C[C@H]1C (single isomer, unassigned) [Compound Z35-1] | – | – | 37 nM | > 30000 nM | IC50 [4]: 249 nM
C=CC(=O)N1C[C@@H]2C(=O)Nc3c(c4cc(F)c(-c5c(O)cccc5F)nc4n(-c4c(C)ccnc4C(C)C)c3=O)N2C[C@H]1C (single isomer, unassigned) [Compound Z35-2] | – | – | 6 nM | > 30000 nM | IC50 [4]: 49 nM
C=CC(=O)N1CC2C(=O)N(C)c3c(c4cc(F)c(-c5c(O)cccc5F)nc4n(-c4c(C(F)(F)F)ccnc4C(C)C)c3=O)N2C[C@H]1C (single isomer, unassigned) [Compound Z49-2] | – | – | 44 nM | > 30000 nM | –
C=CC(=O)N1CCN2c3c(c(=O)n(-c4c(C5CC5)ncnc4C4CC4)c4nc(-c5c(O)cccc5F)c(Cl)cc34)N(C)C(=O)[C@H]2C1 [Compound Z72] | – | – | – | – | IC50 ([4]; Homo sapiens, MIA PaCa-2, 2 h): 106 nM

More lines, main results first:

IC50 ([1]; Homo sapiens, NCI-H358, 120 h) | IC50 ([2]; Homo sapiens, A549, 120 h) | SMILES | IC50 [1] | IC50 [2] | also measured
67 nM | > 30000 nM | C=CC(=O)N1C[C@@H]2C(=O)N(C)c3c(c4cc(F)c(-c5c(O)cccc5F)nc4n(-c4nccnc4C(C)C)c3=O)N2C[C@H]1C [Compound Z22, (2R,4aR)-3-acryloyl-11-fluoro-10-(2-fluoro-6-hydroxyphenyl)-8-(3-isopropylpyrazin-2-yl)-2,6-dimethyl-2,3,4,4a,6,8-hexahydro-1H-pyrazino[1′,2′:4,5]pyrazino[2,3-c][1,8]naphthyridin-5,7-dione] | – | – | IC50 [3]: 180 nM
64 nM | > 30000 nM | C=CC(=O)N1CCN2c3c(c(=O)n(-c4c(C5CC5)ncnc4C4CC4)c4nc(-c5c(F)cccc5OC)c(F)cc34)N(C)C(=O)[C@H]2C1 [Compound Z32, (4aR)-3-acryloyl-11-fluoro-10-(2-fluoro-6-methoxyphenyl)-8-(4,6-bicyclopropylpyrimidin-5-yl)-6-methyl-2,3,4,4a,6,8-hexahydro-1H-pyrazino[1′,2′:4,5]pyrazino[2,3-c][1,8]naphthyridin-5,7-dione] | – | – | IC50 [3]: 170 nM
90 nM | 16900 nM | C=CC(=O)N1CCN2c3c(c(=O)n(-c4c(C)ccnc4C(C)C)c4nc(-c5c(O)cccc5F)c(F)cc34)OC[C@@H]2C1 [Compound Z28, (4aS)-3-acryloyl-11-fluoro-10-(2-fluoro-6-hydroxyphenyl)-8-(2-isopropyl-4-methylpyridin-3-yl)-1,2,3,4,4a,5-hexahydropyrazino[1′,2′:4,5][1,4]oxazino[2,3-c][1,8]naphthyridin-7(8H)-one] | – | – | IC50 [3]: 234 nM
166 nM | 21800 nM | C=CC(=O)N1CCN2c3c(c(=O)n(-c4c(C)ccnc4C(C)C)c4nc(-c5c(C)ccc6[nH]ncc56)c(F)cc34)OC[C@H]2C1 [Compound Z29, (4aR)-3-acryloyl-11-fluoro-8-(2-isopropyl-4-methylpyridin-3-yl)-10-(5-methyl-1H-indazol-4-yl)-1,2,3,4,4a,5-hexahydropyrazino[1′,2′:4,5][1,4]oxazino[2,3-c][1,8]naphthyridin-7(8H)-one] | – | – | –
